Values joined by “and” are separate entries in the source; they are usually repeats but may differ in a detail not shown here. Equal values may be shown once.
Test: an = ratio of the nth substance listed
Settings: 100 kPa, Liquid, Buoyancy - hydrostatic balance

[F][Al]([F])[F] [aluminum fluoride] + [F-].[K+]
Settings	mass density
1123.5 K, a2 = 1.5	1749 kg/m3
1124 K, a2 = 1.5	1748 kg/m3
1124.4 K, a2 = 1.5	1748 kg/m3
1124.9 K, a2 = 1.5	1747 kg/m3
1125.1 K, a2 = 1.5	1747 kg/m3
1125.7 K, a2 = 1.5	1747 kg/m3
1126.2 K, a2 = 1.5	1747 kg/m3
1126.6 K, a2 = 1.5	1746 kg/m3
1127 K, a2 = 1.5	1746 kg/m3
1127.4 K, a2 = 1.5	1746 kg/m3
1127.8 K, a2 = 1.5	1745 kg/m3
1128.2 K, a2 = 1.5	1745 kg/m3
1128.6 K, a2 = 1.5	1745 kg/m3
1128.9 K, a2 = 1.5	1745 kg/m3
1129.6 K, a2 = 1.5	1744 kg/m3
1129.8 K, a2 = 1.5	1744 kg/m3
1130.3 K, a2 = 1.5	1743 kg/m3
1130.8 K, a2 = 1.5	1743 kg/m3
1131 K, a2 = 1.5	1743 kg/m3
1131.5 K, a2 = 1.5	1742 kg/m3
1132 K, a2 = 1.5	1742 kg/m3
1132.3 K, a2 = 1.5	1742 kg/m3
1132.7 K, a2 = 1.5	1742 kg/m3
1133.2 K, a2 = 1.5	1741 kg/m3
1133.6 K, a2 = 1.5	1741 kg/m3
1134 K, a2 = 1.5	1741 kg/m3
1134.3 K, a2 = 1.5	1740 kg/m3
1134.8 K, a2 = 1.5	1740 kg/m3
1135.2 K, a2 = 1.5	1740 kg/m3
1135.6 K, a2 = 1.5	1739 kg/m3
1136.1 K, a2 = 1.5	1739 kg/m3
1163.2 K, a2 = 1.7	1864 kg/m3
1163.3 K, a2 = 1.7	1864 kg/m3
1163.4 K, a2 = 1.7	1864 kg/m3
1163.6 K, a2 = 1.7	1863 kg/m3
1164.4 K, a2 = 1.7	1863 kg/m3
1165 K, a2 = 1.7	1864 kg/m3
1165.1 K, a2 = 1.7	1863 kg/m3
1165.3 K, a2 = 1.7	1862 kg/m3 and 1863 kg/m3
1165.4 K, a2 = 1.7	1863 kg/m3
1166.1 K, a2 = 1.7	1861 kg/m3
1166.2 K, a2 = 1.7	1861 kg/m3
1166.4 K, a2 = 1.7	1862 kg/m3
1166.6 K, a2 = 1.7	1862 kg/m3
1166.8 K, a2 = 1.7	1861 kg/m3
1167 K, a2 = 1.7	1860 kg/m3
1167.3 K, a2 = 1.7	1860 kg/m3 and 1861 kg/m3
1167.5 K, a2 = 1.7	1860 kg/m3
1167.6 K, a2 = 1.7	1861 kg/m3
1168.2 K, a2 = 1.7	1860 kg/m3
1168.6 K, a2 = 1.7	1859 kg/m3
1169.1 K, a2 = 1.7	1860 kg/m3 and 1859 kg/m3
1169.2 K, a2 = 1.7	1859 kg/m3
1169.4 K, a2 = 1.7	1858 kg/m3
1169.6 K, a2 = 1.7	1858 kg/m3
1169.7 K, a2 = 1.7	1858 kg/m3
1169.8 K, a2 = 1.7	1858 kg/m3
1170.3 K, a2 = 1.7	1857 kg/m3
1170.5 K, a2 = 1.7	1857 kg/m3
1170.6 K, a2 = 1.7	1857 kg/m3
1171.1 K, a2 = 1.7	1857 kg/m3
1172 K, a2 = 1.7	1856 kg/m3 and 1857 kg/m3
1172.2 K, a2 = 1.7	1855 kg/m3
1172.7 K, a2 = 1.7	1856 kg/m3
1173.3 K, a2 = 1.7	1856 kg/m3
1173.8 K, a2 = 1.7	1854 kg/m3
1174 K, a2 = 1.7	1855 kg/m3
1174.1 K, a2 = 1.7	1855 kg/m3 and 1854 kg/m3
1174.5 K, a2 = 1.7	1853 kg/m3
1174.6 K, a2 = 1.7	1854 kg/m3
1174.9 K, a2 = 1.7	1855 kg/m3
1175.1 K, a2 = 1.7	1852 kg/m3 and 1854 kg/m3
1175.4 K, a2 = 1.7	1854 kg/m3
1175.6 K, a2 = 1.7	1854 kg/m3
1175.8 K, a2 = 1.7	1853 kg/m3
1175.9 K, a2 = 1.7	1852 kg/m3
1176 K, a2 = 1.7	1852 kg/m3 and 1853 kg/m3
1176.8 K, a2 = 1.7	1851 kg/m3
1177.3 K, a2 = 1.7	1851 kg/m3
1177.5 K, a2 = 1.7	1852 kg/m3
1177.8 K, a2 = 1.7	1851 kg/m3
1177.9 K, a2 = 1.7	1852 kg/m3
1178.2 K, a2 = 1.7	1851 kg/m3
1178.3 K, a2 = 1.7	1851 kg/m3
1178.4 K, a2 = 1.7	1850 kg/m3
1179.5 K, a2 = 1.7	1849 kg/m3
1179.7 K, a2 = 1.7	1849 kg/m3
1179.8 K, a2 = 1.7	1850 kg/m3
1179.9 K, a2 = 1.7	1849 kg/m3
1180 K, a2 = 1.7	1850 kg/m3
1180.2 K, a2 = 1.7	1848 kg/m3
1180.4 K, a2 = 1.7	1849 kg/m3
1180.7 K, a2 = 1.7	1849 kg/m3
1181 K, a2 = 1.7	1848 kg/m3
1181.4 K, a2 = 1.7	1849 kg/m3
1181.5 K, a2 = 1.7	1848 kg/m3
1181.8 K, a2 = 1.7	1847 kg/m3
1182.4 K, a2 = 1.7	1846 kg/m3 and 1847 kg/m3 and 1848 kg/m3
1182.6 K, a2 = 1.7	1847 kg/m3
1182.7 K, a2 = 1.7	1847 kg/m3
1183.2 K, a2 = 1.7	1846 kg/m3
1183.6 K, a2 = 1.7	1846 kg/m3
1183.8 K, a2 = 1.7	1846 kg/m3
1184.2 K, a2 = 1.7	1846 kg/m3
1184.3 K, a2 = 1.7	1845 kg/m3
1184.6 K, a2 = 1.7	1846 kg/m3
1184.8 K, a2 = 1.7	1845 kg/m3
1184.9 K, a2 = 1.7	1845 kg/m3
1185.1 K, a2 = 1.7	1845 kg/m3
1185.4 K, a2 = 1.7	1844 kg/m3
1185.7 K, a2 = 1.7	1844 kg/m3
1186.3 K, a2 = 1.7	1843 kg/m3
1186.4 K, a2 = 1.7	1844 kg/m3
1186.5 K, a2 = 1.7	1844 kg/m3
1186.8 K, a2 = 1.7	1843 kg/m3
1186.9 K, a2 = 1.7	1843 kg/m3
1187.8 K, a2 = 1.7	1843 kg/m3 and 1842 kg/m3 and 1842 kg/m3
1188.1 K, a2 = 1.7	1842 kg/m3

Reference: the NIST ThermoML archive (doi:10.1021/acs.jced.8b00157)
